Assay results from the NIST ThermoML archive (doi:10.1016/j.fluid.2014.09.015).

Settings: Liquid, Closed cell (Static) method

CC(O)CO (stereo not given) [1,2-propanediol]
Settings | vapor or sublimation pressure [kPa]
350.15 K | 0.84
355.15 K | 1.131
360.15 K | 1.506
365.15 K | 1.987
370.15 K | 2.596
375.15 K | 3.361
380.15 K | 4.316
385.15 K | 5.496
390.15 K | 6.946
395.15 K | 8.715
400.15 K | 10.86
405.15 K | 13.44
410.15 K | 16.53
415.15 K | 20.22
420.15 K | 24.59
